Experimental data: article PMC8472378, “Desferrioxamine B-Mediated Pre-Clinical In Vivo Imaging of Infection by the Mold Fungus Aspergillus fumigatus” (Journal of Fungi, 2021)

Assays:
[1] = system: A. fumigatus mutant strain (∆sidA/∆ftrA); test: Siderophore utilization via growth promotion on solid minimal medium; format: cell-based, Aspergillus fumigatus; details: 0.1 µM iron-loaded siderophore, 48 h at 37 °C
Method: Growth assays were performed on solid Aspergillus minimal medium (AMM), as described above, solidified with 1.8% (w/v) agar. The pH was adjusted with NaOH, and the medium was supplemented with the respective siderophore. The agar plates were point-inoculated with 10^4 spores per dot of ∆sidA∆ftrA [10] and incubated at 37 °C for 48 h.

[2] = parameters: method as in PMID 32734456; details: healthy mice; cited from earlier work
[3] = system: Escherichia coli; parameters: method as in PMID 22172389, PMID 32734456; details: cited from earlier work
[4] = system: A. fumigatus strain Afs77; test: Short-term siderophore uptake analysis; format: cell-based, Aspergillus fumigatus; details: for uptake efficacy compared to [68Ga]Ga-DFO-E: 45 min at 37 °C
Method: Short-term uptake of siderophore-complexed ^68Ga was analyzed as described previously. A. fumigatus strain Afs77 [25] was grown for 18 h at 37 °C in 100 mL Aspergillus minimal medium (AMM) according to Pontecorvo et. al. with 1% (w/v) glucose as the carbon source and 20 mM glutamine as the nitrogen source, using iron-free trace elements to induce iron limiting for the transcriptional activation of siderophore uptake. To generate iron-replete mycelia for the transcriptional downregulation of siderophore uptake, the growth medium contained an additional 0.03 mM FeSO4. For the analysis of the pH-dependent siderophore uptake, the pH of the fungal culture medium was adjusted with HCl (1 M) and NaOH (1 M) immediately before the uptake analyses. Uptake assays were performed with 180 µL of liquid A. fumigatus culture added to a prewetted 96-well MultiScreen Filter Plates HTS (1 μm glass fiber filter, Merck Millipore, Darmstadt, Germany). Then, 50 µL of radioactive labelled siderophores (~100 nM) were added to the culture and incubated for 45 min at 37 °C. After washing two times with ice-cold TRIS buffer, the dried filters were measured in a γ-counter.

[5] = parameters: method as in PMID 32734456; details: cited from earlier work
[6] = system: Pseudomonas aeruginosa; details: cited from earlier work
[7] = system: Streptococcus agalactiae; parameters: method as in PMID 22172389, PMID 32734456; details: cited from earlier work
[8] = non-infected rats; cited from earlier work
[9] = parameters: method as in PMID 32734456; details: cited from earlier work; remark: listed apart in the source
[10] = system: pulmonary A. fumigatus infection; test: PET/CT imaging in rat model of pulmonary aspergillosis; format: in vivo, Lewis rats; details: A. fumigatus-infected rats, r.o. injection
Method: (§1) A previously described rat model of pulmonary aspergillosis was used for the in vivo experiments. The introduction of A. fumigatus spores into animals, injection of radiolabeled siderophores and small animal imaging were carried out under 2% isoflurane anesthesia (FORANE, Abbott Laboratories, Abbott Park, IL, USA) to minimize animal suffering and prevent animal motion. Infection in the lung of immunodeficient rats was established by intratracheal inoculation of 100 μL of A. fumigatus spores (10^9 CFU/mL A. fumigatus ATCC 46645; American Type Culture Collection) using the TELE PACK VET X LED system equipped with a flexible endoscope (https://www.karlstorz.com/cps/rde/xbcr/karlstorz_assets/ASSETS/3386919.pdf, accessed on 20 August 2021; Karl Storz GmbH & Co. KG, Tuttlingen, Germany). Depending on the development of the infection, experimental animals underwent an ex vivo biodistribution study or PET/CT imaging, typically 2–4 days after inoculation.
µPET/CT images were acquired with an Albira PET/SPECT/CT small animal imaging system (Bruker Biospin Corporation, Woodbridge, CT, USA). […] After reconstruction, acquired data were viewed, analyzed and processed using the appropriate software (PMOD software, PMOD Technologies Ltd., Zurich, Switzerland and VolView software, Kitware, Clifton Park, NY, USA).

[11] = system: pulmonary A. fumigatus infection; test: Ex vivo biodistribution in A. fumigatus-infected rats; parameters: species or system rat; details: 45 min p.i.; for radioactivity accumulation in non-infected organs (blood, spleen, pancreas, liver, heart and muscle) / route of excretion / uptake in the infected lungs as compared with radiolabeled DFO-B in the same rat: infected rats; for uptake in the infected lungs as compared with radiolabeled DFO-B in the same rat: co-injection
Method: as §1
A. fumigatus-infected rats were retro-orbitally (r.o.) injected with [^67Ga]- and [^68Ga]Ga-DFO-B and DFO-E. One infected rat (rat 1) was injected with [^68Ga]Ga-DFO-B and [^67Ga]Ga-DFO-E, while the second rat (rat 2) was […] with [^67Ga]Ga-DFO-B and [^68Ga]Ga-DFO-E (~0.5 MBq and ~0.5 µg of each DFO-B and DFO-E per rat). Rats were sacrificed by exsanguination 45 min post-injection (p.i.). Organs and tissues of interest (blood, spleen, pancreas, kidneys, liver, heart, muscle and lung) were removed and weighed. The amount of radioactivity in the samples was measured in a γ-counter (2480 Wizard-2; Perkin Elmer, Waltham, MA, USA). First, a short-lived ^68Ga was measured immediately after organ removal in the 511 ± 100 keV energy window, and ^67Ga was measured after 24 h in the 185 ± 100 keV energy window. The results are expressed as percentage of injected dose per gram of organ (%ID/g).

[12] = system: Staphylococcus aureus; details: cited from earlier work
[13] = system: Klebsiella pneumoniae; details: cited from earlier work
[14] = system: A. fumigatus; details: cited from earlier work
[15] = system: Aspergillus terreus; parameters: method as in PMID 23818006; details: cited from earlier work
[16] = system: Mycobacterium smegmatis; parameters: method as in PMID 23818006; details: cited from earlier work
[17] = system: Aspergillus flavus; parameters: method as in PMID 23818006; details: cited from earlier work
[18] = system: Rhizopus arrhizus; parameters: method as in PMID 23818006; details: cited from earlier work
[19] = system: Candida albicans; parameters: method as in PMID 23818006; details: cited from earlier work
[20] = system: Fusarium solani; parameters: method as in PMID 23818006; details: cited from earlier work
[21] = system: R. oryzae; parameters: method as in PMID 23818006; details: cited from earlier work
[22] = infected rat 1 (injected with [68Ga]Ga-DFO-B and [67Ga]Ga-DFO-E)
[23] = infected rat 2 (injected with [67Ga]Ga-DFO-B and [68Ga]Ga-DFO-E)

CC(=O)N([O-])CCCCCNC(=O)CCC(=O)N([O-])CCCCCNC(=O)CCC(=O)N([O-])CCCCCN.[Fe+3] [Fe-DFO-B]
growth promotion activity ([1]; pH 5 (acidic), listed as Fe-DFO-B^ac): rescued the growth promotion | growth promotion activity ([1]; pH 7 (neutral)): promoted growth | growth promotion activity ([1]; pH 9 (alkaline)): promoted growth

CC(=O)N([O-])CCCCCNC(=O)CCC(=O)N([O-])CCCCCNC(=O)CCC(=O)N([O-])CCCCCN.[68Ga+3] [[^68Ga]Ga-DFO-B]
renal excretion [2]: rapid renal excretion | retention in the blood and other organs [2]: minimal retention | in vitro uptake [3]: lack significant uptake | uptake efficacy compared to [68Ga]Ga-DFO-E ([4]; pH 5, iron-limited culture): approximately 20% | uptake efficacy compared to [68Ga]Ga-DFO-E ([4]; pH 7, iron-limited culture): about 50% | uptake efficacy compared to [68Ga]Ga-DFO-E ([4]; pH 9, iron-limited culture): ~80% | stability in human serum and PBS [5]: high stability | in vitro uptake [6]: uptake was found | in vitro uptake [7]: uptake was found | accumulation in the lungs [8]: negligible accumulation | ratio of 68Ga activity in lung vs. blood [8]: 0.84 | protein binding [9]: low protein binding | elimination of unbound tracer ([10]; PET/CT 45 min p.i.): rapidly eliminated via the renal system | PET/CT imaging of the infected area in the lungs ([10]; static PET/CT 45 min p.i.): clear depiction of the infected area in the lungs | ratio of activity in lung vs. blood [11, 22]: about 17 | ratio of activity in lung vs. blood [11, 23]: ~8 | radioactivity accumulation in non-infected organs (blood, spleen, pancreas, liver, heart and muscle) [11]: low radioactivity accumulation | route of excretion [11]: primary excretion via kidneys | in vitro uptake [12]: uptake was found | in vitro uptake [13]: lack significant uptake | in vitro uptake [14]: uptake was found

CC(=O)N([O-])CCCCCNC(=O)CCC(=O)N([O-])CCCCCNC(=O)CCC(=O)N([O-])CCCCCNC(=O)CCC(=O)O.[Fe+3] [Fe-DFO-B^suc]
growth promotion activity ([1]; pH 9 (alkaline)): lowest growth promotion activity

CC(=O)N([O-])CCCCCNC(=O)CCC(=O)N([O-])CCCCCNC(=O)CCC(=O)N([O-])CCCCCNC(=O)CCC(=O)O.[68Ga+3] [[^68Ga]Ga-DFO-B^suc]
uptake efficacy (in words) ([4]; pH 9, 45 min at 37 °C): highly decreased uptake efficacy

CC(=O)N([O-])CCCCCNC(=O)CCC(=O)N([O-])CCCCCNC(=O)CCC(=O)N([O-])CCCCCN.[67Ga+3] [[^67Ga]Ga-DFO-B]
radioactivity accumulation in non-infected organs (blood, spleen, pancreas, liver, heart and muscle) [11]: low radioactivity accumulation | route of excretion [11]: primary excretion via kidneys

O=C1CCC(=O)N([O-])CCCCCNC(=O)CCC(=O)N([O-])CCCCCNC(=O)CCC(=O)N([O-])CCCCCN1.[67Ga+3] [[^67Ga]Ga-DFO-E]
radioactivity accumulation in non-infected organs (blood, spleen, pancreas, liver, heart and muscle) [11]: low radioactivity accumulation | route of excretion [11]: primary excretion via kidneys | uptake in the infected lungs as compared with radiolabeled DFO-B in the same rat [11]: only slightly higher uptake

CC(=O)N(O)CCCCCNC(=O)CCC(=O)N(O)CCCCCNC(=O)CCC(=O)N(O)CCCCCN [DFO-B, desferrioxamine B]
in vitro uptake compared to the TAFC and DFO-E metal complexes [14]: significantly lower in vitro uptake

O=C1CCC(=O)N([O-])CCCCCNC(=O)CCC(=O)N([O-])CCCCCNC(=O)CCC(=O)N([O-])CCCCCN1.[Fe+3] [Fe-DFO-E]
growth promotion activity ([1]; pH 5 (acidic)): promoted the growth | growth promotion activity ([1]; pH 7 (neutral)): promoted the growth | growth promotion activity ([1]; pH 9 (alkaline)): promoted the growth

CC(=O)N[C@H]1CCCN2[O][Ga]3[O]N(CCC[C@H](NC(C)=O)C(=O)OCC/C(C)=C/C(=O)N(CCC[C@H](NC(C)=O)C(=O)OCC/C(C)=C/C2=O)[O]3)C(=O)/C=C(\C)CCOC1=O [[^68Ga]Ga-TAFC]
in vitro uptake [15]: no significant uptake | in vitro uptake [16]: no significant uptake | in vitro uptake [6]: no significant uptake | in vitro uptake [17]: no significant uptake | in vitro uptake [18]: uptake | in vitro uptake [12]: no significant uptake | in vitro uptake [13]: no significant uptake | in vitro uptake [19]: no significant uptake | in vitro uptake [14]: uptake

O=C1CCC(=O)N([O-])CCCCCNC(=O)CCC(=O)N([O-])CCCCCNC(=O)CCC(=O)N([O-])CCCCCN1.[68Ga+3] [[^68Ga]Ga-DFO-E]
in vitro uptake [20]: considerable uptake | in vitro uptake [15]: considerable uptake | in vitro uptake [21]: considerable uptake | in vitro uptake [17]: considerable uptake | accumulation in the lungs [8]: negligible accumulation | ratio of 68Ga activity in lung vs. blood [8]: 0.79 | ratio of activity in lung vs. blood [11, 22]: about 17 | ratio of activity in lung vs. blood [11, 23]: ~8 | radioactivity accumulation in non-infected organs (blood, spleen, pancreas, liver, heart and muscle) [11]: low radioactivity accumulation | route of excretion [11]: primary excretion via kidneys | uptake in the infected lungs as compared with radiolabeled DFO-B in the same rat [11]: only slightly higher uptake | in vitro uptake [12]: considerable uptake | in vitro uptake [14]: highest uptake
